Measurements as given in paper PMC9182130 (Molecules, 2022).

Assays:
[1] = human, in vivo
[2] = 4 °C
[3] = human
[4] = human; remark: listed apart in the source

| SMILES | half-life compared with ST-246 [1] | maximum concentration in plasma compared with ST-246 [1] | dose of ST-246 equivalent to 600 mg of NIOCH-14 according to the area under the curve ([1]; po) | AUCo-inf ([1]; po, 600 mg) | Cl/F ([1]; po, 600 mg) | time of stability in autosampler [2] | % of nominal concentrations after three consecutive freeze-thaw cycles [3] | time of stability at −20 °C [4] | time without degradation at −20 °C [4] | maximal ST-246 concentration in real-world plasma samples ([1]; po) |
| --- | --- | --- | --- | --- | --- | --- | --- | --- | --- | --- |
| O=C(NNC(=O)C1C2C=CC(C3CC23)C1C(=O)O)c1ccc(C(F)(F)F)cc1 (stereo not shown) [NIOCH-14] | longer | lower | ~250 mg | 8864 ± 4117 | 80 ± 37 L/h | – | – | – | – | – |
| O=C(NN1C(=O)[C@@H]2[C@@H]3C=C[C@@H]([C@H]4C[C@@H]34)[C@@H]2C1=O)c1ccc(C(F)(F)F)cc1 [ST-246, tecovirimat] | – | – | – | – | – | 48 h | 96–115% | ≥ 90 days | at least 3 months | ≤ 1000 ng/mL |
